Experimental data: publication PMC9598282 (Antibiotics, 2022)

How the values were obtained:
Assay in all cases: microbe, parasite or virus in culture
P. aeruginosa PAO1 = assay type: cell-based, Pseudomonas aeruginosa; settings: for MIC: Pseudomonas aeruginosa, PAO1, 18 h, read-out: MIC alone
Description: (§1) The adjuvant properties of the guanidinylated polymyxins were evaluated using the checkerboard assay as previously described. The bacterial solution was prepared as described in the antimicrobial susceptibility assay. The antibiotic of interest and the adjuvant were serially diluted two-fold along the x- and y-axis on a 96-well plate, respectively, resulting in varying concentrations of both agents in each well. Equal volumes of bacterial solution were added to the designated wells. The well consisting of bacterial solution served as the positive control, while the wells containing only media served as the negative control. The plate was then incubated at 37 °C for 18 h. After incubation, an Emax Plus microplate reader (Molecular Devices, Union City, CA, USA) was used to measure the OD at a wavelength of 590 nm to confirm the turbidity. The fractional inhibitory concentration (FIC) index was then determined to establish the relationship between the antibiotic and adjuvant. The FIC index corresponds to the sum of the FICs of the antibiotic and adjuvant. The FIC of each agent is calculated by dividing its MIC when it is used in combination by its MIC when used alone. FIC indices ≤0.5, 0.5 < x ≤ 4 and >4 indicate synergy, additivity and antagonism, respectively.

E. coli ATCC 25922 = assay type: cell-based, Escherichia coli; set-up: key to FIC index antibiotic + GCol / FIC index antibiotic + GPMB: sum of FICs; ≤0.5 synergy, 0.5–4 additivity, >4 antagonism; settings: for MIC: Escherichia coli, ATCC25922, 18 h, read-out: MIC alone; for MIC / MIC alone: agent alone, one value per checkerboard plate
Description: as §1

A. baumannii ATCC 17978 = assay type: cell-based, Acinetobacter baumannii; settings: for MIC: Acinetobacter baumannii, ATCC17978, 18 h, read-out: MIC alone; for MIC / MIC alone: agent alone, one value per checkerboard plate
Description: as §1

[1] = agent alone, one value per checkerboard plate

| SMILES | Absolute MIC of antibiotic at 4 μg/mL GCol (P. aeruginosa PAO1) | Absolute MIC of antibiotic at 4 μg/mL GPMB (P. aeruginosa PAO1) | MIC (P. aeruginosa PAO1; [1]) | Fold-potentiation of antibiotic (P. aeruginosa PAO1; at 4 μg/mL GCol) | Fold-potentiation of antibiotic (P. aeruginosa PAO1; at 4 μg/mL GPMB) | Absolute MIC of antibiotic at 2 μg/mL GCol (E. coli ATCC 25922) | Absolute MIC of antibiotic at 2 μg/mL GPMB (E. coli ATCC 25922) | FIC index antibiotic + GCol (E. coli ATCC 25922) | FIC index antibiotic + GPMB (E. coli ATCC 25922) | MIC (E. coli ATCC 25922) | Fold-potentiation of antibiotic (E. coli ATCC 25922; at 2 μg/mL GCol) | Fold-potentiation of antibiotic (E. coli ATCC 25922; at 2 μg/mL GPMB) | Absolute MIC of antibiotic at 2 μg/mL GCol (A. baumannii ATCC 17978) | Absolute MIC of antibiotic at 2 μg/mL GPMB (A. baumannii ATCC 17978) | FIC index antibiotic + GPMB (A. baumannii ATCC 17978) | MIC (A. baumannii ATCC 17978) | Fold-potentiation of antibiotic (A. baumannii ATCC 17978; at 2 μg/mL GCol) | Fold-potentiation of antibiotic (A. baumannii ATCC 17978; at 2 μg/mL GPMB) | MIC alone (A. baumannii ATCC 17978) | also measured |
| --- | --- | --- | --- | --- | --- | --- | --- | --- | --- | --- | --- | --- | --- | --- | --- | --- | --- | --- | --- | --- |
| O=C(N[C@H](CO)[C@H](O)c1ccc([N+](=O)[O-])cc1)C(Cl)Cl [Chloramphenicol] | 4 µg/mL | 2 µg/mL | 32 µg/mL | 8 | 16 | 0.5 µg/mL | 0.5 µg/mL | 0.375 | 0.5 | 2 µg/mL | 4 | 4 | 64 µg/mL | 32 µg/mL | 0.563 | 64 µg/mL | 1 | 2 | – | – |
| CCC[C@@H]1C[C@@H](C(=O)N[C@@H]([C@H]2O[C@H](SC)[C@H](O)[C@@H](O)[C@H]2O)[C@H](C)Cl)N(C)C1 [Clindamycin] | 8 µg/mL | 8 µg/mL | 1020 µg/mL | 128 | 256 | 4 µg/mL | 8 µg/mL | 0.125 | 0.313 | 64 µg/mL | 16 | 16 | 512 µg/mL | 64 µg/mL | 0.375 | 1020 µg/mL | 2 | 16 | – | FIC index antibiotic + GPMB (P. aeruginosa PAO1): 0.254; MIC alone (P. aeruginosa PAO1; [1]): 2048 µg/mL; MIC alone (E. coli ATCC 25922): 128 µg/mL |
| C[C@H]1c2cccc(O)c2C(=O)C2=C(O)[C@]3(O)C(=O)C(C(N)=O)=C(O)[C@@H](N(C)C)[C@@H]3[C@@H](O)[C@@H]21 [Doxycycline] | 1 µg/mL | 0.5 µg/mL | 8 µg/mL | – | – | – | – | – | – | – | – | – | 0.125 µg/mL | 0.063 µg/mL | – | 0.125 µg/mL | – | – | 0.063 µg/mL | – |
| C[C@H]1COc2c(N3CCN(C)CC3)c(F)cc3c(=O)c(C(=O)O)cn1c23 [Levofloxacin] | 0.0625 µg/mL | 0.03125 µg/mL | 0.5 µg/mL | 8 | 8 | 0.008 µg/mL | 0.032 µg/mL | 0.531 | 0.563 | – | 2 | 2 | 0.125 µg/mL | 0.063 µg/mL | 1 | 0.125 µg/mL | 1 | 1 | 0.063 µg/mL | FIC index antibiotic + GPMB (P. aeruginosa PAO1): 0.375 |
| CC(=O)NC[C@H]1CN(c2ccc(N3CCOCC3)c(F)c2)C(=O)O1 [Linezolid] | 128 µg/mL | 32 µg/mL | 1020 µg/mL | 8 | 32 | 16 µg/mL | 8 µg/mL | 0.25 | 0.25 | 128 µg/mL | 8 | 16 | 128 µg/mL | 64 µg/mL | 0.375 | 256 µg/mL | 2 | 4 | – | – |
| CN(C)c1ccc(O)c2c1C[C@H]1C[C@H]3[C@H](N(C)C)C(O)=C(C(N)=O)C(=O)[C@@]3(O)C(O)=C1C2=O [Minocycline] | 0.5 µg/mL | 0.5 µg/mL | 16 µg/mL | 32 | 32 | 0.25 µg/mL | 0.125 µg/mL | 0.281 | 0.25 | 1 µg/mL | 4 | 8 | 0.125 µg/mL | 0.063 µg/mL | 0.5 | 0.125 µg/mL | 1 | 4 | 0.25 µg/mL | – |
| COc1c(N2C[C@@H]3CCCN[C@@H]3C2)c(F)cc2c(=O)c(C(=O)O)cn(C3CC3)c12 [Moxifloxacin] | – | – | 1 µg/mL | – | – | 0.008 µg/mL | 0.004 µg/mL | – | – | 0.016 µg/mL | – | – | 0.063 µg/mL | 0.063 µg/mL | – | 0.063 µg/mL | – | – | – | – |
| CO[C@@H]1[C@@H](OC(N)=O)[C@@H](O)[C@H](Oc2ccc3c(O)c(NC(=O)c4ccc(O)c(CC=C(C)C)c4)c(=O)oc3c2C)OC1(C)C [Novobiocin] | 128 µg/mL | 4 µg/mL | 1020 µg/mL | 8 | 256 | 0.125 µg/mL | 0.25 µg/mL | 0.02 | 0.012 | 128 µg/mL | 1024 | 256 | 0.5 µg/mL | 0.063 µg/mL | 0.07 | 8 µg/mL | 16 | 256 | – | MIC alone (E. coli ATCC 25922): 64 µg/mL |
| CCN1CCN(C(=O)N[C@@H](C(=O)N[C@@H]2C(=O)N3[C@@H]2SC(C)(C)[C@@H]3C(=O)O)c2ccccc2)C(=O)C1=O [Piperacillin] | 1 µg/mL | 1 µg/mL | 4 µg/mL | 4 | 4 | 0.125 µg/mL | 0.063 µg/mL | 0.188 | 0.281 | 2 µg/mL | 16 | 32 | 64 µg/mL | 64 µg/mL | 0.375 | 64 µg/mL | 1 | 1 | – | – |
